{"source": "ChEMBL document CHEMBL1147282", "about": "“3 beta-O-palmityl longispinogenin from Trichocereus chilensis” (J Nat Prod, 1989)", "key": {"A549": {"tested_on": "A549", "experiment": "Cytotoxicity against human A549 cells", "format": "functional", "conditions": "read-out: ED50 (the source's name)"}, "Artemia": {"tested_on": "Artemia", "experiment": "Toxicity in brine shrimp", "format": "organism-based", "conditions": "in vivo"}, "HT-29": {"tested_on": "HT-29", "experiment": "Cytotoxicity against human HT-29 cells", "format": "functional", "conditions": "read-out: ED50 (the source's name)"}, "MCF7": {"tested_on": "MCF7", "experiment": "Cytotoxicity against human MCF7 cells", "format": "functional", "conditions": "read-out: ED50 (the source's name)"}}}
{"smiles": "CCCCCCCCCCCCCCCC(=O)O[C@H]1CC[C@]2(C)[C@H]3CC=C4[C@@H]5CC(C)(C)CC[C@]5(CO)[C@@H](O)C[C@@]4(C)[C@]3(C)CC[C@H]2C1(C)C", "values": [{"measurement": "EC50", "setting": "A549", "result": "> 10", "unit": "mg/L"}, {"measurement": "LC50", "setting": "Artemia", "result": "> 1000", "unit": "ppm"}, {"measurement": "EC50", "setting": "HT-29", "result": "> 10", "unit": "mg/L"}, {"measurement": "EC50", "setting": "MCF7", "result": "> 10", "unit": "mg/L"}]}
